The values that follow come from US6756480B2, “Modulators of receptors for parathyroid hormone and parathyroid hormone-related protein” (Amgen Inc., priority 2000, dated 2004).

One assay deals with Sprague Dawley (SD) rats. Put plainly: Anabolic assay: lumbar (L3) BMD by DEXA, PTH constructs with or without OPG-Fc. The format is in vivo. Particulars: 6-month-old male SD rats, DEXA Day 7; OPG-Fc 1 mg/kg once; PTH-(1-34) 20 nMoles/kg x3; PTH-(1-34)-Fc 60 nMoles/kg once. The protocol:
Briefly, 6-month-old male Sprague Dawley (SD) rats were divided into groups of 6. Baseline bone mineral density (BMD) was determined in the third lumbar vertebra (L3) of all rats by dual-energy X-ray absorptiometry (DEXA) (Day 0). Rats were then treated according to the following schedule:
Group 1: Vehicle controls (PBS, injected SC, Days 1, 3, and 5)
Group 2: OPG-Fc, single SC injection (1 mg/kg) on Day 1
Group 3: PTH-(1-34), SC injections on Days 1, 3, and 5, at 20 nMoles PTH/kg/injection. This represents an optimal anabolic PTH regimen.
Group 4: Same as group 3, but with a single OPG-Fc injection on Day 1.
Group 5: Single SC injection of PTH-(1-34)-Fc at 60 nMoles/kg, on Day 1. This represents a molar dose which is equivalent to the total dose of PTH-(1-34) received by group 3, but in a single injection.
Group 6: Same as group 5, but with a single OPG-Fc injection (SC, 1 mg/kg) on Day 1.
DEXA of the lumbar spine was performed again on Day 7 to evaluate changes in BMD. […] The anabolic effect of a single treatment with PTH-(1-34)-Fc plus OPG-Fc was greater than that induced by multiple injections of PTH-(1-34), with or without OPG-Fc co-treatment.
Normal 6 month old male rats were treated with PTH-Fc or PTH or vehicle by a single SC injection. Some rats also received a single SC injection of OPG. BMD was determined 7 days later by DEXA. Data represent means+SD, N=6 rats/group.

The subject of another assay is mice. Put plainly: Hypercalcemia assay: murine hypercalcemia model, single SC injection, blood ionized calcium. The format is in vivo. The protocol:
Mice were challenged with vehicle (PBS, —X—), or with PTH-(1-34) (open symbols) or with PTH-(1-34)-Fc (closed symbols). Doses were 156 nmol/kg (circles), 469 nmol/kg (triangles) or 1,560 nmol/kg (squares). Data represent group means, n=6 mice/group.
We tested the potency and duration of effect of PTH-(1-34)-Fc in a murine hypercalcemia model. Briefly, mice were injected once SC with varying doses of PTH-(1-34) or PTH-(1-34)-Fc, and peripheral blood was collected from the retroorbital sinus for determination of blood ionized calcium. The half-life and the potency of PTH-(1-34)-Fc was greater than that of PTH-(1-34), as evidenced by the sustained hypercalcemic response of mice to the former agent (FIG. 4). Hypercalcemia induced by PTH-(1-34) persisted for 6-24 h, while equimolar doses of PTH-(1-34)-Fc caused more sustained hypercalcemia (48-72 h). This duration of response is consistent with greater half-life of the PTH-(1-34)-Fc construct vs. PTH-(1-34).

Turning to “PTH-(1-34)-Fc: human PTH-(1-34), SVSEIQLMHNLGKHLNSMERVEWLRKKLQDVHNF, linked at its C-terminus to an Fc domain”, the “BMD in L3 compared to PBS-treated rats” value in the assay with Sprague Dawley (SD) rats is recorded as “failed to increase BMD”. Further, the “peak ionized calcium levels compared with an equimolar dose of PTH-(1-34)” value in the assay with mice (highest dose) is given as “greater increase in peak ionized calcium levels”. Further, in the assay with mice (highest dose employed), the “hypercalcemic response (area under the curve) relative to equimolar PTH-(1-34)” value was 2.6 fold. Also, the “potency compared with PTH-(1-34)” value in the assay on mice (hypercalcemic response) is on record as “significantly greater”. Besides, in the assay with mice (single SC injection, equimolar doses, blood ionized calcium), the duration of hypercalcemia was 48 to 72 h.
